Measured values taken from BindingDB's records for doi:10.1021/cb600276q (Genentech, 2006).
Where a SMILES comes first, the peptide text is derived from it.

What was measured:
Experiment in all cases: Fluorescence Polarization Affinity Measurements.
Details in all cases: pH 7.2; 22 °C
[1] = molecular target: T1, Baculoviral IAP repeat-containing protein 3 [252-340] (Homo sapiens, UniProt Q13489)
T1 construct: 252-340
Procedure: (§1) Samples for fluorescence polarization affinity measurements were prepared by addition of serial dilutions of target protein to each well containing antagonist and polarization probe in the buffer. Samples were read after 30-min incubation. Fluorescence polarization values were plotted as a function of the antagonist concentration, and the IC50 values were obtained by fitting the data to a four-parameter equation using KaleidaGraph software. Ki values for the antagonists were determined from the IC50 values.

[2] = molecular target: T2, Baculoviral IAP repeat-containing protein 2 [266-354] (Homo sapiens, UniProt Q13490)
T2 construct: 266-354
Procedure: as §1

[3] = molecular target: T3, E3 ubiquitin-protein ligase XIAP [241-356] (Homo sapiens, UniProt P98170)
T3 construct: 241-356
Procedure: as §1

[4] = molecular target: T4, Complex of Baculoviral IAP repeat-containing protein 7 [1-159,S150G] and E3 ubiquitin-protein ligase XIAP [336-348] (Homo sapiens, UniProt Q96CA5, S150G)
T4 construct: 1-159; 336-348
Procedure: as §1

With `CN[C@@H](C)C(=O)N[C@H]1CCC[C@H]2SC(C)(C)[C@@H](C(=O)Nc3cc(C)nn3-c3ccccc3)N2C1=O` [(3R,6S,9aR)-2,2-dimethyl-N-(3-methyl-1-phenyl-1H-pyrazol-5-yl)-6-[(2S)-2-(methylamino)propanamido]-5-oxo-octahydroazepino[2,1-b][1,3]thiazole-3-carboxamide] the Ki [1] was 130 nM and the Ki [2] was 50 nM.
`CC(C)[C@H](NC(=O)[C@H](C)N)C(=O)N1CCC[C@H]1C(=O)N[C@@H](Cc1c[nH]c2ccccc12)C(=O)O` [L-alanyl-L-valyl-L-prolyl-L-tryptophan] (H-AVPW-OH) showed a Ki [1] of 70 nM, a Ki [3] of 50 nM and a Ki [4] of 40 nM. It also gave a Ki [2] of 30 nM.
`CN[C@@H](C)C(=O)N[C@H]1CCC[C@H]2SC[C@@H](C(=O)Nc3cc(C)nn3-c3ccccc3)N2C1=O` [(3R,6S,9aR)-N-(3-methyl-1-phenyl-1H-pyrazol-5-yl)-6-[(2S)-2-(methylamino)propanamido]-5-oxo-octahydroazepino[2,1-b][1,3]thiazole-3-carboxamide] showed a Ki [1] of 490 nM and a Ki [2] of 110 nM.
